Legend:
[1] = test system: normal NK cells expanded with K562-aAPC; experiment: percent inhibition of viability; higher = more inhibition; conditions: 72 h, IL-2 2.5 ng/mL
Protocol: (§1)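 Drug sensitivity and resistance testing on K562-aAPC-expanded normal NK cells: 5 concentrations (10-fold steps over a 10,000-fold range), 72 h at 37 °C, viability by CellTiter-Glo normalised to DMSO and benzethonium chloride controls; DSS from the fitted curve.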

[2] = test system: normal primary NK cells, pool 1 (3 donors), resting (IL-2 0 ng/mL); experiment: drug sensitivity score (DSS) (DSS units); higher = more sensitive; extreme values may be limits of the assay; conditions: 72 h
DERL-7 (IL-2 2.5 ng/mL) [3] = experiment: as above; conditions: 72 h
[4] = test system: normal primary NK cells, pool 3 (3 donors) (IL-2 2.5 ng/mL); experiment: as above; conditions: 72 h
KAI3 (IL-2 2.5 ng/mL) [5] = experiment: as above; conditions: 72 h
YT (IL-2 2.5 ng/mL) [6] = experiment: as above; conditions: 72 h
KHYG-1 (IL-2 2.5 ng/mL) [7] = experiment: as above; conditions: 72 h
NK-92 (IL-2 2.5 ng/mL) [8] = experiment: as above; conditions: 72 h
SNK-6 (IL-2 2.5 ng/mL) [9] = experiment: as above; conditions: 72 h
[10] = test system: normal primary NK cells, pool 2 (3 donors) (IL-2 2.5 ng/mL); experiment: as above; conditions: 72 h
NKL (IL-2 2.5 ng/mL) [11] = experiment: as above; conditions: 72 h
NK-YS (IL-2 2.5 ng/mL) [12] = experiment: as above; conditions: 72 h
IMC-1 (IL-2 20 ng/mL) [13] = experiment: as above; conditions: 72 h
[14] = test system: normal primary NK cells, pool 1 (3 donors) (IL-2 2.5 ng/mL); experiment: as above; conditions: 72 h
[15] = test system: normal primary NK cells, pool 1 (3 donors), resting (IL-2 0 ng/mL); experiment: percent inhibition of viability; higher = more inhibition; conditions: 72 h
DERL-7 (IL-2 2.5 ng/mL) [16] = experiment: as above; conditions: 72 h
[17] = test system: normal primary NK cells, pool 3 (3 donors) (IL-2 2.5 ng/mL); experiment: as above; conditions: 72 h
KAI3 (IL-2 2.5 ng/mL) [18] = experiment: as above; conditions: 72 h
YT (IL-2 2.5 ng/mL) [19] = experiment: as above; conditions: 72 h
KHYG-1 (IL-2 2.5 ng/mL) [20] = experiment: as above; conditions: 72 h
NK-92 (IL-2 2.5 ng/mL) [21] = experiment: as above; conditions: 72 h
SNK-6 (IL-2 2.5 ng/mL) [22] = experiment: as above; conditions: 72 h
[23] = test system: normal primary NK cells, pool 2 (3 donors) (IL-2 2.5 ng/mL); experiment: as above; conditions: 72 h
NKL (IL-2 2.5 ng/mL) [24] = experiment: as above; conditions: 72 h
NK-YS (IL-2 2.5 ng/mL) [25] = experiment: as above; conditions: 72 h
IMC-1 (IL-2 20 ng/mL) [26] = experiment: as above; conditions: 72 h
[27] = test system: normal primary NK cells, pool 1 (3 donors) (IL-2 2.5 ng/mL); experiment: as above; conditions: 72 h
[28] = test system: normal NK cells expanded with K562-aAPC; experiment: drug sensitivity score (DSS) (DSS units); higher = more sensitive; extreme values may be limits of the assay; conditions: 72 h; IL-2 2.5 ng/mL
Protocol: as §1

Cc1ccc2nc(CN(CCN(Cc3nc4ccc(C)cc4[nH]3)Cc3nc4ccc(C)cc4[nH]3)Cc3nc4ccc(C)cc4[nH]3)[nH]c2c1 (max concentration tested 50000 nM)
percent inhibition of viability [%]
Conditions | 5 nM | 50 nM | 500 nM | 5000 nM | 50000 nM
DERL-7 (IL-2 2.5 ng/mL) [16] | 2.65 | -5.22 | 4.05 | 22 | 101
IMC-1 (IL-2 20 ng/mL) [26] | -6.83 | -3.4 | -4.29 | 10.4 | 51.3
KAI3 (IL-2 2.5 ng/mL) [18] | -0.45 | -7.54 | 8.33 | 62.9 | 110
KHYG-1 (IL-2 2.5 ng/mL) [20] | -9.01 | -6.49 | -6.15 | 36.3 | 108
NK-92 (IL-2 2.5 ng/mL) [21] | -27.1 | -13.1 | 15.2 | 54.5 | 110
NK-YS (IL-2 2.5 ng/mL) [25] | -2.1 | -1.56 | 2.07 | 18.1 | 107
NKL (IL-2 2.5 ng/mL) [24] | 2.31 | -9.86 | 19.8 | 69.1 | 107
SNK-6 (IL-2 2.5 ng/mL) [22] | -21 | -28.4 | -6.29 | -12.1 | 101
YT (IL-2 2.5 ng/mL) [19] | -8.1 | -15.1 | -6.51 | 29.4 | 108
[1] | -4.88 | -8.25 | -3.73 | 17.5 | 100
[15] | -25.9 | 1.32 | 12.4 | 24.8 | 99.8
[17] | -5.58 | -1.41 | 10.2 | 5.2 | 32.2
[23] | -1.51 | 3.91 | 12.8 | 12.1 | 37.9
[27] | -9.49 | 4.67 | 4.72 | 25.6 | 101

Conditions | drug sensitivity score
DERL-7 (IL-2 2.5 ng/mL) [3] | 9.01
IMC-1 (IL-2 20 ng/mL) [13] | 4.41
KAI3 (IL-2 2.5 ng/mL) [5] | 13.3
KHYG-1 (IL-2 2.5 ng/mL) [7] | 10.5
NK-92 (IL-2 2.5 ng/mL) [8] | 12.5
NK-YS (IL-2 2.5 ng/mL) [12] | 8.57
NKL (IL-2 2.5 ng/mL) [11] | 15.5
SNK-6 (IL-2 2.5 ng/mL) [9] | 4.89
YT (IL-2 2.5 ng/mL) [6] | 9.85
[2] | 9.11
[4] | 2.31
[10] | 3.42
[14] | 9.43
[28] | 8.41

CN1CCN(c2cc(C(=O)Nc3ccc4c(c3)-c3c(c(C(N)=O)nn3-c3ccc(F)cc3)CC4)c(Cl)cn2)CC1 [PHA 408] (max concentration tested 10000 nM)
percent inhibition of viability [%]
Conditions | 1 nM | 10 nM | 100 nM | 1000 nM | 10000 nM
DERL-7 (IL-2 2.5 ng/mL) [16] | -1.3 | 0.79 | 2.16 | 31.9 | 101
IMC-1 (IL-2 20 ng/mL) [26] | -8.52 | -6.11 | -8.53 | 2.74 | 99.6
KAI3 (IL-2 2.5 ng/mL) [18] | -0.05 | 1.36 | 9.21 | 50.4 | 101
KHYG-1 (IL-2 2.5 ng/mL) [20] | -10.4 | -8.63 | -10.2 | -0.31 | 104
NK-92 (IL-2 2.5 ng/mL) [21] | -21 | -16.1 | -4.02 | 12.9 | 102
NK-YS (IL-2 2.5 ng/mL) [25] | -12.4 | -7.83 | -4.48 | 7.91 | 103
NKL (IL-2 2.5 ng/mL) [24] | -18.1 | -8.26 | -5.06 | 22.7 | 103
SNK-6 (IL-2 2.5 ng/mL) [22] | -17.6 | -11.2 | 0.21 | 22.9 | 100
YT (IL-2 2.5 ng/mL) [19] | -7.69 | -3.99 | -2.06 | 15.8 | 104
[1] | -8.15 | -10.8 | -1.64 | 16.7 | 101
[15] | 18.8 | 21.2 | 14.8 | 12.5 | 100
[17] | 1.98 | 1.33 | 13.2 | 4.36 | 101
[23] | 1.04 | -1.49 | 11.9 | 13 | 101
[27] | -10.8 | -7.07 | 1.01 | 6.7 | 101

Conditions | drug sensitivity score
DERL-7 (IL-2 2.5 ng/mL) [3] | 10.1
IMC-1 (IL-2 20 ng/mL) [13] | 5.9
KAI3 (IL-2 2.5 ng/mL) [5] | 11.6
KHYG-1 (IL-2 2.5 ng/mL) [7] | 5.88
NK-92 (IL-2 2.5 ng/mL) [8] | 7.75
NK-YS (IL-2 2.5 ng/mL) [12] | 6.95
NKL (IL-2 2.5 ng/mL) [11] | 9.11
SNK-6 (IL-2 2.5 ng/mL) [9] | 9.12
YT (IL-2 2.5 ng/mL) [6] | 8.22
[2] | 7.64
[4] | 6.27
[10] | 7.73
[14] | 6.64
[28] | 8.3

CCN(CC)C(=S)SSC(=S)N(CC)CC [Disulfiram] (max concentration tested 100000 nM)
percent inhibition of viability [%]
Conditions | 10 nM | 100 nM | 1000 nM | 10000 nM | 100000 nM
DERL-7 (IL-2 2.5 ng/mL) [16] | 4.4 | 22.1 | 97.2 | 58.3 | 100
IMC-1 (IL-2 20 ng/mL) [26] | -0.36 | 2.91 | 74.2 | 44.6 | 101
KAI3 (IL-2 2.5 ng/mL) [18] | 0.03 | -5.96 | 23.3 | 29.1 | 99.8
KHYG-1 (IL-2 2.5 ng/mL) [20] | 1.86 | 2.15 | 64.2 | 44.3 | 101
NK-92 (IL-2 2.5 ng/mL) [21] | -0.19 | -7.5 | 39.9 | 1.99 | 98.8
NK-YS (IL-2 2.5 ng/mL) [25] | 1.28 | 2.15 | 66.6 | 59.1 | 94.4
NKL (IL-2 2.5 ng/mL) [24] | 2.6 | 19.2 | 89.2 | 93.1 | 103
SNK-6 (IL-2 2.5 ng/mL) [22] | 0.42 | -19.7 | 11.4 | -24.5 | 100
YT (IL-2 2.5 ng/mL) [19] | 3.15 | 1.21 | 7.05 | 7.11 | 96.6
[1] | -4.71 | 1.75 | 94.6 | 74 | 100
[15] | -2.82 | 3.62 | 97.2 | 97.5 | 101
[17] | -15.5 | 1.36 | 98.2 | 99.1 | 101
[23] | -8.13 | 11.6 | 98.6 | 98.2 | 101
[27] | 3.67 | -0.96 | 99.8 | 99.5 | 101

Conditions | drug sensitivity score
DERL-7 (IL-2 2.5 ng/mL) [3] | 32.9
IMC-1 (IL-2 20 ng/mL) [13] | 20
KAI3 (IL-2 2.5 ng/mL) [5] | 8.84
KHYG-1 (IL-2 2.5 ng/mL) [7] | 18.2
NK-92 (IL-2 2.5 ng/mL) [8] | 5.78
NK-YS (IL-2 2.5 ng/mL) [12] | 21.3
NKL (IL-2 2.5 ng/mL) [11] | 31.1
SNK-6 (IL-2 2.5 ng/mL) [9] | 4.39
YT (IL-2 2.5 ng/mL) [6] | 6.46
[2] | 30.6
[4] | 30.4
[10] | 32.3
[14] | 30.3
[28] | 29.9

Reference: the supplement of paper PMC5908809
